The target of test [1] is T1, USP5 (Homo sapiens, UniProt P45974).
T1 sequence (P45974 1-858): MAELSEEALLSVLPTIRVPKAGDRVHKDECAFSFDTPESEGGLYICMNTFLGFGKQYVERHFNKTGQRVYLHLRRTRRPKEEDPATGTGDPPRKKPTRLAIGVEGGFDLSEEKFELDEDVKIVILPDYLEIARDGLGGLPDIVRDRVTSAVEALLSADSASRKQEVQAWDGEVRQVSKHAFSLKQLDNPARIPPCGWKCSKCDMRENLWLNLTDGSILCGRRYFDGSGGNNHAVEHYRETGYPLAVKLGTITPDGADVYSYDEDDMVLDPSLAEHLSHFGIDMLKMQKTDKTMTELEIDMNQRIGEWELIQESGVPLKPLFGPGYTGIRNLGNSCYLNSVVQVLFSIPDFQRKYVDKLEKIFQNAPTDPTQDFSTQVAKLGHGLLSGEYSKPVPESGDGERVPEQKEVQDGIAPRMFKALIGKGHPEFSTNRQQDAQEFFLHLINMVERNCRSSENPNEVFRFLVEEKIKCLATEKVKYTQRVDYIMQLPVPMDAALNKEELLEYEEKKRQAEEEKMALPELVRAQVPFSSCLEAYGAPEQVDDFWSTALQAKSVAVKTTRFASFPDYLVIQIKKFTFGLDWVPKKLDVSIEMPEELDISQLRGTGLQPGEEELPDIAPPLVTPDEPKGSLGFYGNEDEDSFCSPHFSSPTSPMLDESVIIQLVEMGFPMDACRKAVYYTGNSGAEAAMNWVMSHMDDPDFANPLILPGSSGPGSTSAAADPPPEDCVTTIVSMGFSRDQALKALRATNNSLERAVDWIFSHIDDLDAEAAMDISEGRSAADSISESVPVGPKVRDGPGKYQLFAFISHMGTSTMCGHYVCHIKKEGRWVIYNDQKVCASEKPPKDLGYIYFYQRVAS
In words: USP5 activity assay. Conditions: 400 nM Ub-AMC, 300 pM enzyme; pre-incubated 30 minutes at 25° C., 60 minutes at 37° C.; sigmoidal fit; read-out: USP 5. The class given is biochemical. The method, then: USP5 was diluted in USP buffer (50 mM Tris HCl; 0.5 mM EDTA; 5 mM DTT; 0.01% Triton X-100; Bovine Serum Albumin 0.05 mg.ml^−1 pH 7.6). Compounds stocks (100 mM) were stored at -20° C. in DMSO.
Reactions were performed as duplicates in Black LJL 96 well plates (HE microplates; Molecular Devices; 20 μl final reaction volume). The substrate concentration for USP5 was 400 nM Ub-AMC (Boston Biochem). The concentrations of the enzyme (USP5) in specificity assays was 300 pM. The concentrations were determined in order to perform specificity assays under initial velocities at fixed substrate concentration. Compounds were pre-incubated with enzymes for 30 minutes at 25° C. Reactions were initiated by addition of substrate to the plates containing the enzymes (+/− compounds) diluted in assay buffer. Reactions were incubated for 60 minutes at 37° C. Reactions were stopped by adding acetic acid (100 mM final). Readings were performed on a Pherastar Fluorescent Reader (BMG). λ Emission 380 nm; λ Excitation=460 nm. Data (mean values +/− standard deviation) were analyzed as % of control (no compound) and plotted as percentage versus the Log of the compound concentration using GraphPad (Prism). Data were fitted to a sigmoidal model (variable slope).

For test [2], the target named is Cathepsin B (Homo sapiens, UniProt P07858). The experiment in a line: Cathepsin B activity assay. The class given is biochemical. The settings on record: 36 μM z-RR-AMC, 3.6 nM enzyme; pre-incubated 30 minutes at 25° C., 60 minutes at 37° C.; sigmoidal fit. The method, then:
Cathepsin B was diluted in Cathepsin B buffer (20 mM Tris HCl pH 6.8; 1 mM EDTA; 1 mM DTT). Compounds stocks (100 mM) were stored at −20° C. in DMSO. Compounds were tested at the following final concentrations: 100 μM; 33.3 μM; 11.1 μM; 3.7 μM; 1.23 μM; 412 nM; 137 nM; 45.7 nM; 15.2 nM; 5 nM. Reactions were performed as duplicates in Black LJL 96 well plates (HE microplates; Molecular Devices; 20 μl final reaction volume). The substrate concentration for cathepsin B specificity assay was 36 μM (z-RR-AMC; Calbiochem). The concentration of the enzyme (Cathepsin B) in specificity assays was 3.6 nM. The concentrations were determined in order to perform specificity assays under initial velocities at fixed substrate concentration. Compounds were pre-incubated with enzymes for 30 minutes at 25° C. Reactions were initiated by addition of substrate to the plates containing the enzymes (+/− compounds) diluted in assay buffer. Reactions were incubated for 60 minutes at 37° C. Reactions were stopped by adding acetic acid (100 mM final). Readings were performed on a Pherastar Fluorescent Reader (BMG). δ Emission 380 nm; δ Excitation=460 nm. Data (mean values +/− standard deviation) were analyzed as % of control (no compound) and plotted as percentage versus the Log of the compound concentration using GraphPad (Prism). Data were fitted to a sigmoidal model (variable slope).

Test [3] concerns PC-3 prostate cancer cells. In words: PC3 cell viability and proliferation assay (MTS). Format: cell-based. The settings on record: 72 hours incubation, mean of three independent experiments, read-out: PC3 GI50 D3. The procedure, abridged:
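PC-3 cells, seeded 24 h earlier, were treated in triplicate at 5 nM–10 μM with 0.5% final DMSO for 72 hours. Viability was read by 2-hour MTS conversion and absorbance at 492 nm. GI50 came from a sigmoidal variable-slope fit, averaged over three independent experiments.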

This passage reports IC50 and GI50 results from patent US20090181972A1, “Novel Inhibitors of Cysteine Proteases, the Pharmaceutical Compositions Thereof and their Therapeutic Applications” (priority 2005, published 2009).

As for `CCc1nnc2nc3c(nn12)C(=O)c1cc(OC)c(OC)cc1-3` [Example 5b/A, 1-Ethyl-6,7-dimethoxy-2,3,4,10,10a-pentaaza-cyclopenta[b]fluoren-9-one], in test [1], the IC50 was determined as 4.8 µM.

As for `CC(C)c1nnc2nc3c(nn12)C(=O)c1ccccc1-3` [Example 1l/A, 1-lsopropyl-2,3,4,10,10a-pentaaza-cyclopenta[b]fluoren-9-one], the results for the IC50 in test [2] and in test [1] were 9.2 µM and 3.9 µM, respectively.

Usually GI50 stands for the concentration at which growth is held to half of that of the control. With “6-(7)-Chloro-1-methyl-2,3,4,10,10a-pentaaza-cyclopenta[b]fluoren-9-one [Example 3/A]”, the figures for the IC50 in test [2] and in test [1] were 17.4 µM and 1.54 µM, respectively. Moreover, the GI50 in test [3] was 0.994 µM.
